Results taken from US6706663B2, “Herbicidal 3-heterocyclic substituted benzisothiazole and benzisoxazole compounds” (Wyeth, priority 2000, dated 2004).

Columns and labels:
[1] = system: IPOHE (Ipomoea hederacea); assay: Postemergence herbicidal evaluation; type: in vivo, (L.) Jacq.
Method in brief: (§1)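 Seedlings grown about two weeks in flats, sprayed, then kept under standard greenhouse care. Rated visually 4–5 weeks after treatment on a 0–9 scale (stand, vigour, malformation, size, chlorosis, overall appearance) relative to untreated control; repeat tests averaged.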

[2] = system: ECHCG (Echinochloa crus-galli); assay: Preemergence herbicidal evaluation; type: in vivo, (L.) Beau; details: rated 4-5 weeks after treatment
Method in brief: (§2)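 Scores (0–9) reflect visual comparison with control plants for stand, vigor, malformation, size and chlorosis. Seeds in potting soil received a post-planting spray of compound in aqueous acetone and grew in a greenhouse until assessment 4–5 weeks later.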

SETVI (Setaria viridis) [3] = assay: Preemergence herbicidal evaluation; type: in vivo, (L.) Beau; details: rated 4-5 weeks after treatment
Method in brief: as §2

GALAP (Galium aparine) [4] = assay: Postemergence herbicidal evaluation; type: in vivo
Method in brief: as §1

[5] = system: CYPSE (Cyperus serotinus); assay: Flooded paddy, preemergence weed control; type: in vivo, Rottb.; details: rated 3-4 weeks after treatment, 0-9 rating scale
Method in brief: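 Seeds or propagules were planted 0.5 cm deep in silt loam and flooded to 1.5–3 cm. Compounds in 50/50 v/v aqueous/acetone were pipetted into the flood water at about 0.0080 to 0.1250 kg/ha. After 3–4 weeks in the greenhouse, effect was rated visually on a 0–9 scale versus untreated control.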

[6] = system: CHEAL (Chenopodium album); assay: Preemergence herbicidal evaluation; type: in vivo, L.; details: rated 4-5 weeks after treatment
Method in brief: as §2

[7] = system: CASOB (Cassia obtusifolia); assay: Preemergence herbicidal evaluation; type: in vivo, L.; details: rated 4-5 weeks after treatment
Method in brief: as §2

[8] = system: AMBEL (Ambrosia artemisifolia); assay: Preemergence herbicidal evaluation; type: in vivo, L.; details: rated 4-5 weeks after treatment
Method in brief: as §2

SETVI (Setaria viridis) [9] = assay: Postemergence herbicidal evaluation; type: in vivo, (L.) Beau
Method in brief: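 Visual injury score (0-9: stand, vigor, malformation, size, chlorosis, overall appearance vs untreated control) taken four to five weeks post-spray. Two-week-old seedlings received about 0.0040 to 1.000 kg/ha active compound in acetone/water with 0.5% TWEEN 20.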

[10] = system: ABUTH (Abutilon theophrasti); assay: Postemergence herbicidal evaluation; type: in vivo, Medic.
Method in brief: as §1

[11] = system: ABUTH (Abutilon theophrasti); assay: Preemergence herbicidal evaluation; type: in vivo, Medic.; details: rated 4-5 weeks after treatment
[12] = system: GLXMAW (Soybean, Williams); assay: Postemergence herbicidal evaluation; type: in vivo, Glycine max, (L.) Merr. cv Williams
Method in brief: as §1

ZEAMX (Corn, Field) = assay: Preemergence herbicidal evaluation; type: in vivo, Zea mays, L.; details: rated 4-5 weeks after treatment
ORYSAT (Rice, Tebonnet) = assay: Flooded paddy, post-transplant rice tolerance; type: in vivo, Oryza sativa, (L.) Tebonnet; details: flooded paddy, post-transplant rice, rated 3-4 weeks after treatment, 0-9 rating scale
Method in brief: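 Scores (0-9) reflect visual injury relative to untreated plants in flooded silt loam. Each pot held two transplanted ten-day-old seedlings under 1.5 to 3 cm standing water in the greenhouse.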

GALAP (Galium aparine) [13] = assay: Preemergence herbicidal evaluation; type: in vivo; details: rated 4-5 weeks after treatment
Method in brief: as §2

[14] = system: TRZAWR (Wheat, Winter, cv Riband); assay: Postemergence herbicidal evaluation; type: in vivo, Triticum aestivum
Method in brief: as §1

[15] = system: MOOVA (Monochoria vaginalis); assay: Flooded paddy, preemergence weed control; type: in vivo, Presl.; details: rated 3-4 weeks after treatment, 0-9 rating scale
Method in brief: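 Silt loam, sowing depth ≤0.5 cm; permanent flood 1.5–3 cm above soil; greenhouse culture after treatment. Readout: 0-9 visual scale (stand, vigor, malformation, size, chlorosis, appearance) vs control.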

SMILES: Cc1cccnc1-c1nsc2cc(F)c(-n3c(=O)cc(C(F)(F)F)n(C)c3=O)cc12 [Compound 44, 3-[6-fluoro-3-(3-methyl-2-pyridyl)-1,2-benzisothiazol-5-yl]-1-methyl-6-(trifluoromethyl)uracil]
- Postemergence herbicidal rating, IPOHE ([1]; rate 0.0320 kg/ha): 9.0
- Postemergence herbicidal rating, IPOHE ([1]; rate 0.0620 kg/ha): 9.0
- Preemergence herbicidal rating ECHCG ([2]; Rate 0.0620 kg/ha): 9.0
- Preemergence herbicidal rating ECHCG ([2]; Rate 0.1250 kg/ha): 9.0
- Preemergence herbicidal rating ECHCG ([2]; Rate 0.2500 kg/ha): 9.0
- Preemergence herbicidal rating SETVI (SETVI (Setaria viridis) [3]; Rate 0.0620 kg/ha): 9.0
- Preemergence herbicidal rating SETVI (SETVI (Setaria viridis) [3]; Rate 0.1250 kg/ha): 9.0
- Preemergence herbicidal rating SETVI (SETVI (Setaria viridis) [3]; Rate 0.2500 kg/ha): 9.0
- Postemergence herbicidal rating, GALAP (GALAP (Galium aparine) [4]; rate 0.0320 kg/ha): 4.0
- Postemergence herbicidal rating, GALAP (GALAP (Galium aparine) [4]; rate 0.0620 kg/ha): 7.0
- herbicidal rating, CYPSE ([5]; rate 0.0080 kg/ha): 0.0
- herbicidal rating, CYPSE ([5]; rate 0.0320 kg/ha): 9.0
- herbicidal rating, CYPSE ([5]; rate 0.1250 kg/ha): 9.0
- Preemergence herbicidal rating CHEAL ([6]; Rate 0.0620 kg/ha): 9.0
- Preemergence herbicidal rating CHEAL ([6]; Rate 0.1250 kg/ha): 9.0
- Preemergence herbicidal rating CHEAL ([6]; Rate 0.2500 kg/ha): 9.0
- Preemergence herbicidal rating CASOB ([7]; Rate 0.0620 kg/ha): 1.0
- Preemergence herbicidal rating CASOB ([7]; Rate 0.1250 kg/ha): 5.5
- Preemergence herbicidal rating CASOB ([7]; Rate 0.2500 kg/ha): 9.0
- Preemergence herbicidal rating AMBEL ([8]; Rate 0.0620 kg/ha): 8.0
- Preemergence herbicidal rating AMBEL ([8]; Rate 0.1250 kg/ha): 9.0
- Preemergence herbicidal rating AMBEL ([8]; Rate 0.2500 kg/ha): 9.0
- Postemergence herbicidal rating, SETVI (SETVI (Setaria viridis) [9]; rate 0.0320 kg/ha): 9.0
- Postemergence herbicidal rating, SETVI (SETVI (Setaria viridis) [9]; rate 0.0620 kg/ha): 9.0
- Postemergence herbicidal rating, ABUTH ([10]; rate 0.0320 kg/ha): 9.0
- Postemergence herbicidal rating, ABUTH ([10]; rate 0.0620 kg/ha): 9.0
- Preemergence herbicidal rating ABUTH ([11]; Rate 0.0620 kg/ha): 9.0
- Preemergence herbicidal rating ABUTH ([11]; Rate 0.1250 kg/ha): 9.0
- Preemergence herbicidal rating ABUTH ([11]; Rate 0.2500 kg/ha): 9.0
- Postemergence herbicidal rating, GLXMAW ([12]; rate 0.0320 kg/ha): 8.5
- Postemergence herbicidal rating, GLXMAW ([12]; rate 0.0620 kg/ha): 8.5
- Preemergence herbicidal rating ZEAMX (ZEAMX (Corn, Field); Rate 0.0620 kg/ha): 7.5
- Preemergence herbicidal rating ZEAMX (ZEAMX (Corn, Field); Rate 0.1250 kg/ha): 7.5
- Preemergence herbicidal rating ZEAMX (ZEAMX (Corn, Field); Rate 0.2500 kg/ha): 9.0
- herbicidal rating, ORYSAT (rice tolerance) (ORYSAT (Rice, Tebonnet); rate 0.0080 kg/ha): 0.0
- herbicidal rating, ORYSAT (rice tolerance) (ORYSAT (Rice, Tebonnet); rate 0.0320 kg/ha): 7.5
- herbicidal rating, ORYSAT (rice tolerance) (ORYSAT (Rice, Tebonnet); rate 0.1250 kg/ha): 7.5
- Preemergence herbicidal rating GALAP (GALAP (Galium aparine) [13]; Rate 0.0620 kg/ha): 0.0
- Preemergence herbicidal rating GALAP (GALAP (Galium aparine) [13]; Rate 0.1250 kg/ha): 9.0
- Preemergence herbicidal rating GALAP (GALAP (Galium aparine) [13]; Rate 0.2500 kg/ha): 9.0
- Postemergence herbicidal rating, TRZAWR ([14]; rate 0.0320 kg/ha): 4.0
- Postemergence herbicidal rating, TRZAWR ([14]; rate 0.0620 kg/ha): 5.0
- herbicidal rating, MOOVA ([15]; rate 0.0080 kg/ha): 0.0
- herbicidal rating, MOOVA ([15]; rate 0.0320 kg/ha): 8.5
- herbicidal rating, MOOVA ([15]; rate 0.1250 kg/ha): 9.0

SMILES: Cn1c(C(F)(F)F)cc(=O)n(-c2ccc3snc(C4OCCO4)c3c2)c1=O [Compound 45, 3-[3-(1,3-dioxolan-2-yl)-1,2-benzisothiazol-5-yl]-1-methyl-6-(trifluoromethyl)uracil]
- Postemergence herbicidal rating, IPOHE ([1]; rate 0.0320 kg/ha): 9.0
- Postemergence herbicidal rating, IPOHE ([1]; rate 0.0620 kg/ha): 9.0
- Preemergence herbicidal rating ECHCG ([2]; Rate 0.0620 kg/ha): 9.0
- Preemergence herbicidal rating ECHCG ([2]; Rate 0.1250 kg/ha): 9.0
- Preemergence herbicidal rating ECHCG ([2]; Rate 0.2500 kg/ha): 9.0
- Preemergence herbicidal rating SETVI (SETVI (Setaria viridis) [3]; Rate 0.0620 kg/ha): 9.0
- Preemergence herbicidal rating SETVI (SETVI (Setaria viridis) [3]; Rate 0.1250 kg/ha): 9.0
- Preemergence herbicidal rating SETVI (SETVI (Setaria viridis) [3]; Rate 0.2500 kg/ha): 9.0
- Postemergence herbicidal rating, GALAP (GALAP (Galium aparine) [4]; rate 0.0320 kg/ha): 8.5
- Postemergence herbicidal rating, GALAP (GALAP (Galium aparine) [4]; rate 0.0620 kg/ha): 9.0
- herbicidal rating, CYPSE ([5]; rate 0.0080 kg/ha): 9.0
- herbicidal rating, CYPSE ([5]; rate 0.0320 kg/ha): 9.0
- herbicidal rating, CYPSE ([5]; rate 0.1250 kg/ha): 9.0
- Preemergence herbicidal rating CHEAL ([6]; Rate 0.0620 kg/ha): 9.0
- Preemergence herbicidal rating CHEAL ([6]; Rate 0.1250 kg/ha): 9.0
- Preemergence herbicidal rating CHEAL ([6]; Rate 0.2500 kg/ha): 9.0
- Preemergence herbicidal rating CASOB ([7]; Rate 0.0620 kg/ha): 8.7
- Preemergence herbicidal rating CASOB ([7]; Rate 0.1250 kg/ha): 9.0
- Preemergence herbicidal rating CASOB ([7]; Rate 0.2500 kg/ha): 9.0
- Preemergence herbicidal rating AMBEL ([8]; Rate 0.0620 kg/ha): 9.0
- Preemergence herbicidal rating AMBEL ([8]; Rate 0.1250 kg/ha): 9.0
- Preemergence herbicidal rating AMBEL ([8]; Rate 0.2500 kg/ha): 9.0
- Postemergence herbicidal rating, SETVI (SETVI (Setaria viridis) [9]; rate 0.0320 kg/ha): 6.3
- Postemergence herbicidal rating, SETVI (SETVI (Setaria viridis) [9]; rate 0.0620 kg/ha): 9.0
- Postemergence herbicidal rating, ABUTH ([10]; rate 0.0320 kg/ha): 9.0
- Postemergence herbicidal rating, ABUTH ([10]; rate 0.0620 kg/ha): 9.0
- Preemergence herbicidal rating ABUTH ([11]; Rate 0.0620 kg/ha): 9.0
- Preemergence herbicidal rating ABUTH ([11]; Rate 0.1250 kg/ha): 9.0
- Preemergence herbicidal rating ABUTH ([11]; Rate 0.2500 kg/ha): 9.0
- Postemergence herbicidal rating, GLXMAW ([12]; rate 0.0320 kg/ha): 8.8
- Postemergence herbicidal rating, GLXMAW ([12]; rate 0.0620 kg/ha): 8.8
- Preemergence herbicidal rating ZEAMX (ZEAMX (Corn, Field); Rate 0.0620 kg/ha): 8.8
- Preemergence herbicidal rating ZEAMX (ZEAMX (Corn, Field); Rate 0.1250 kg/ha): 9.0
- Preemergence herbicidal rating ZEAMX (ZEAMX (Corn, Field); Rate 0.2500 kg/ha): 8.7
- herbicidal rating, ORYSAT (rice tolerance) (ORYSAT (Rice, Tebonnet); rate 0.0080 kg/ha): 8.5
- herbicidal rating, ORYSAT (rice tolerance) (ORYSAT (Rice, Tebonnet); rate 0.0320 kg/ha): 9.0
- herbicidal rating, ORYSAT (rice tolerance) (ORYSAT (Rice, Tebonnet); rate 0.1250 kg/ha): 9.0
- Preemergence herbicidal rating GALAP (GALAP (Galium aparine) [13]; Rate 0.0620 kg/ha): 7.0
- Preemergence herbicidal rating GALAP (GALAP (Galium aparine) [13]; Rate 0.1250 kg/ha): 9.0
- Preemergence herbicidal rating GALAP (GALAP (Galium aparine) [13]; Rate 0.2500 kg/ha): 9.0
- Postemergence herbicidal rating, TRZAWR ([14]; rate 0.0320 kg/ha): 4.4
- Postemergence herbicidal rating, TRZAWR ([14]; rate 0.0620 kg/ha): 5.0
- herbicidal rating, MOOVA ([15]; rate 0.0080 kg/ha): 4.5
- herbicidal rating, MOOVA ([15]; rate 0.0320 kg/ha): 9.0
- herbicidal rating, MOOVA ([15]; rate 0.1250 kg/ha): 9.0
